Test results published in patent US20070073056A1, “4-Substituted Pyrazoline Compounds, their Preparation and Use as Medicaments” (LABORATORIOS DEL DR. ESTEVE, S.A., priority 2005, published 2007).

Biological target: CB1-receptor (UniProt P20272)
Experiment: binding of the pyrazoline compounds to CB1-receptors (Pharmacological Methods, Part I)
Set-up: other: 10^−7 M; other: 10^−8 M; species or system human or rat
Procedure: I. In-vitro Determination of Affinity to CB1/CB2-Receptors
The in-vitro determination of the affinity of the inventive 4-substituted pyrazoline compounds to CB1/CB2-Rezeptors is carried out as described in the publication of Ruth A. Ross, Heather C. Brockie et al., “Agonist-inverse agonist characterisation at CB1 and CB2 cannabinoid receptors of L-759633, L759656 and AM630”, British Journal of Pharmacology, 126, 665-672, (1999), whereby the transfected human CB1 and CB2 receptors of Receptor Biology, Inc. are used. The radioligand used for both receptors is [^3H]-CP55940. The respective parts of the description is hereby incorporated by reference and forms part of the present disclosure.
Rat Cerebellum CB1 Binding
Binding affinity to CB1 receptor was evaluated according to a modification of the method described by Govaerts et al., Eur J Pharmac Sci 23, 233-243 (2004). The respective parts of the description is hereby incorporated by reference and forms part of the present disclosure.
Briefly, cerebellum from male wistar rats (250-300 g) were carefully dissected on ice and homogenates were prepared with Potter-Helveheim in a cold 50 mM Tris-HCl solution containing 5 mM MgCl2, 1 mM EDTA and 0.25 M sucrose, pH 7.4. The suspension was centrifuged at […] for 5 minutes. The supernatants were collected and centrifuged 50,000×g for 15 minutes. The resulting pellets were then resuspended in Tris-HCl buffer without sucrose, homogenized and incubated for 15 min at 37° C. in an orbital shaker bath and centrifuged again at 50,000×g for 15 min. Pellets were weighted, resuspended in Tris-HCl buffer without sucrose, homogenized with Ultraturrax at 13,500 rpm for 3×5 seconds and alicuoted in 0.9 ml volumes in Eppendorf tubes. Alicuotes were centrifuged at 20,800×g for 5 minutes, supernatants discarded and pellets were frozen at −80° C. until use. Total protein concentration was determined using the Bio-Rad Lowry method based kit. Competitive binding experiments were performed in presence of 1 nM [^3H]-CP 55,940 in siliconized glass tubes containing 100 μg protein/tube resuspended in 1 ml final volume of 50 mM Tris-HCl, 5 mM MgCl2, 1 mM EDTA, 0.5% (w/v) bovine serum albumin, pH 7.4. Compounds were present at various concentrations and the non specific binding was determined in the presence of 10 μM HU-210. After 1 hour incubation at 30° C., the suspension was rapidly filtered through 0.5% PEI pre-treated GF/B fiber filters on a 96-well harvester and washed 3 times with 3 ml ice-cold binding buffer without bovine serum albumin. Radioactivity on filters was measured with Wallac Winspectral 1414 counter by liquid scintillation in 6 ml Ecoscint H (National Diagnostics, U.K.). Assays were made in triplicates.
Binding data were analyzed by non-linear regression with the software GraphPad Prism Version 3.03.
The binding of the pyrazoline compounds of general formula I to CB1-receptors was determined according to the method described in the section Pharmacological Methods, Part I.

| Compound | Inhibition (10^−7 M) | Inhibition (10^−8 M, in %) |
| --- | --- | --- |
| COC[C@H]1CCCN1NC(=O)C1=NN(c2ccc(Cl)cc2Cl)[C@H](c2ccc(Cl)cc2)[C@@H]1C.Cl (mixture of isomers) [Example 106, cis-5-(4-chlorophenyl)-1-(2,4-dichlorophenyl)-N-((R)-2-(methoxymethyl)pyrrolidin-1-yl)-4-methyl-4,5-dihydro-1H-pyrazole-3-carboxamide hydrochloride] | 39% | 20.4 |
| COC[C@@H]1CCCN1NC(=O)C1=NN(c2ccc(Cl)cc2Cl)[C@H](c2ccc(Cl)cc2)[C@@H]1C.Cl (mixture of isomers) [Example 107, cis-5-(4-chlorophenyl)-1-(2,4-dichlorophenyl)-N-((S)-2-(methoxymethyl)pyrrolidin-1-yl)-4-methyl-4,5-dihydro-1H-pyrazole-3-carboxamide hydrochloride] | 43.9% | 2.7 |
| C[C@@H]1C(C(=O)N[C@H]2CCCC[C@@H]2O)=NN(c2ccc(Cl)cc2Cl)[C@@H]1c1ccc(Cl)cc1 (mixture of isomers) [Example 128, (+)-cis-5-(4-chlorophenyl)-1-(2,4-dichlorophenyl)-N-((1S,2S)-2-hydroxycyclohexyl)-4-methyl-4,5-dihydro-1H-pyrazole-3-carboxamide] | 35.3% | 18.0 |
| COc1ccc([C@@H]2[C@H](C)C(C(=O)N[C@H]3CCCC[C@@H]3O)=NN2c2ccc(Cl)cc2Cl)cc1 (mixture of isomers) [Example 281, (+)-cis-1-(2,4-dichlorophenyl)-N-((1S,2S)-2-hydroxycyclohexyl)-5-(4-methoxyphenyl)-4-methyl-4,5-dihydro-1H-pyrazole-3-carboxamide] | 39.0% | 10.2 |
| COc1ccc([C@@H]2[C@H](C)C(C(=O)N[C@H]3CCCC[C@@H]3O)=NN2c2ccc(Cl)cc2Cl)cc1 (mixture of isomers) [Example 282, (−)-cis-1-(2,4-dichlorophenyl)-N-((1S,2S)-2-hydroxycyclohexyl)-5-(4-methoxyphenyl)-4-methyl-4,5-dihydro-1H-pyrazole-3-carboxamide] | 44.3% | 9.6 |
| C[C@@H]1C(C(=O)N[C@H]2CCCC[C@@H]2OCc2ccccc2)=NN(c2ccc(Cl)cc2Cl)[C@@H]1c1ccc(Cl)cc1 (mixture of isomers) [Example 409, (+)-cis-N-((1S,2S)-2-(benzyloxy)cyclohexyl)-5-(4-chlorophenyl)-1-(2,4-dichlorophenyl)-4-methyl-4,5-dihydro-1H-pyrazole-3-carboxamide] | −5.8% | −37 |
| C[C@@H]1C(C(=O)N[C@H]2C[C@H]3CC[C@]2(C)C3(C)C)=NN(c2ccc(Cl)cc2Cl)[C@@H]1c1ccc(Cl)cc1 (mixture of isomers) [Example 422, cis-5-(4-chlorophenyl)-1-(2,4-dichlorophenyl)-4-methyl-N-((1R,2S,4R)-1,7,7-trimethylbicyclo[2.2.1]heptan-2-yl)-4,5-dihydro-1H-pyrazole-3-carboxamide] | −2% | −8.4 |
| C[C@@H]1C(C(=O)N[C@@H]2CCCC[C@H]2OCc2ccccc2)=NN(c2ccc(Cl)cc2Cl)[C@@H]1c1ccc(Cl)cc1 (mixture of isomers) [Example 437, (−)-cis-N-((1R,2R)-2-(benzyloxy)cyclohexyl)-5-(4-chlorophenyl)-1-(2,4-dichlorophenyl)-4-methyl-4,5-dihydro-1H-pyrazole-3-carboxamide] | 40.9% | 14.7 |
| CC[C@H]1C(C(=O)O)=NN(c2ccc(Cl)cc2Cl)[C@H]1c1ccc(Cl)cc1 (racemic) [Example 21, cis-5-(4-Chloro-phenyl)-1-(2,4-dichloro-phenyl)-4-ethyl-4,5-dihydro-1H-pyrazole-3-carboxylic acid] | 23% | 11 |
| C[C@H]1C(C(=O)O)=NN(c2ccc(Cl)cc2Cl)[C@H]1c1ccc(F)cc1 (racemic) [Example 221, cis-1-(2,4-dichlorophenyl)-5-(4-fluorophenyl)-4-methyl-4,5-dihydro-1H-pyrazole-3-carboxylic acid] | −6.3% | −2.2 |
| COc1ccc([C@H]2[C@@H](C)C(C(=O)O)=NN2c2ccc(Cl)cc2Cl)cc1 (racemic) [Example 261, cis-1-(2,4-dichlorophenyl)-5-(4-methoxyphenyl)-4-methyl-4,5-dihydro-1H-pyrazole-3-carboxylic acid] | −6.9% | −5 |
| C[C@H]1C(C(=O)O)=NN(c2ccc(Cl)cc2Cl)[C@H]1c1cccs1 (racemic) [Example 367, cis-1-(2,4-dichlorophenyl)-4-methyl-5-(thiophen-2-yl)-4,5-dihydro-1H-pyrazole-3-carboxylic acid] | 11% | 7.2 |
| C[C@H]1C(C(=O)NN2CCCC2)=NN(c2ccc(Cl)cc2Cl)[C@H]1c1ccc(Cl)cc1 (relative stereo) [Example 7, cis-5-(4-Chloro-phenyl)-1-(2,4-dichloro-phenyl)-4-methyl-4,5-dihydro-1H-pyrazole-3-carboxylic acid pyrrolidin-1-ylamide] | 41% | 20.7 |
| C[C@@H]1C(C(=O)NN2CCN(C3CCCC3)CC2)=NN(c2ccc(Cl)cc2Cl)[C@@H]1c1ccc(Cl)cc1.Cl (relative stereo) [Example 100, cis-5-(4-chlorophenyl)-N-(4-cyclopentylpiperazin-1-yl)-1-(2,4-dichlorophenyl)-4-methyl-4,5-dihydro-1H-pyrazole-3-carboxamide hydrochloride] | 32.6% | 5.4 |
| C[C@@H]1C(C(=O)NN2CCOCC2)=NN(c2ccc(Cl)cc2Cl)[C@@H]1c1ccc(Cl)cc1 (relative stereo) [Example 101, cis-5-(4-chlorophenyl)-1-(2,4-dichlorophenyl)-4-methyl-N-morpholino-4,5-dihydro-1H-pyrazole-3-carboxamide] | 34.9% | 27.7 |
| C[C@@H]1C(C(=O)NN2C(=O)c3cccc4cccc(c34)C2=O)=NN(c2ccc(Cl)cc2Cl)[C@@H]1c1ccc(Cl)cc1 (relative stereo) [Example 104, cis-5-(4-Chlorophenyl)-1-(2,4-dichlorophenyl)-4-methyl-4,5-dihydro-1H-pyrazole-3-carboxylic acid (1,3-dioxo-1H,3H-benzo[de]isoquinolin-2-yl)-amide] | 31.7% | −0.4 |
| C[C@@H]1C(C(=O)NN2Cc3cccc4cccc(c34)C2)=NN(c2ccc(Cl)cc2Cl)[C@@H]1c1ccc(Cl)cc1 (relative stereo) [Example 105, cis-5-(4-Chlorophenyl)-1-(2,4-dichlorophenyl)-4-methyl-4,5-dihydro-1H-pyrazole-3-carboxylic acid (1H,3H-benzo[de]isoquinolin-2-yl)-amide] | 31.4% | 35.9 |
| C[C@@H]1C(C(=O)NCC2CCCCC2)=NN(c2ccc(Cl)cc2Cl)[C@@H]1c1ccc(Cl)cc1 (relative stereo) [Example 114, cis-5-(4-chlorophenyl)-N-(cyclohexylmethyl)-1-(2,4-dichlorophenyl)-4-methyl-4,5-dihydro-1H-pyrazole-3-carboxamide] | 28.3% | −13 |
